According to patent publication US10307431B2, “Lyophilized cyclophosphamide composition and methods of preparation thereof” (priority 2017, dated 2019):
Like-named read-outs stand apart in the source and are kept apart here.

Legend:
[1] = background, prior art, cited from earlier work
[2] = bulk solution maintained at 5° C. to 15° C., such as 12° C.±3° C., for an extended period of time

In the case of `O=P1(N(CCCl)CCCl)NCCCO1` (stereo not drawn) [monohydrate drug form, cyclophosphamide monohydrate], the stability as reported ([1]; monohydrate) is listed as “stable”.
In the case of `O=P1(N(CCCl)CCCl)NCCCO1` (stereo not drawn) [anhydrous form, cyclophosphamide anhydrous], the stability as reported [1] is given as “highly unstable”.
With `O=P1(N(CCCl)CCCl)NCCCO1` (stereo not drawn) [cyclophosphamide, 2-[bis(2-chloroethyl)amino]tetrahydro-2H-1,3,2-oxazaphosphorine 2-oxide] the “degradation in bulk solution” value [2] was “significant degradation”.
